{
  "source": "patent US8940291B2",
  "about": "(priority 2009, dated 2015)",
  "test_system": "VSVΔ51-resistant CT26 colon carcinoma tumors",
  "parameters": "species or system Balb/c mice",
  "conditions": "mouse, in vivo, ip",
  "data": [
    {"smiles": "O=C1OC(c2ccccc2)C(Cl)=C1Cl", "note": "(centres unmarked) [VSe1, 3,4-dichloro-5-phenyl-2,5-dihydrofuran-2-one]", "values": [
      {"measurement": "tumor growth, compound alone", "result": "neither VSe1 nor VSVΔ51 alone had a significant effect on tumor growth"},
      {"measurement": "tumor progression, combination with VSVΔ51", "result": "significant delay in tumor progression"}
    ]}
  ]
}
